According to patent publication US20230212193A1, “CRYSTALLINE RET INHIBITOR” (Loxo Oncology, Inc., priority 2020, published 2023):
Values after ≈ are worked out from the molar mass of the structure shown.

Legend:
Assay type in all cases: physicochemical
[1] = accelerated stability study of Form B (open dish, temperature/humidity; XRPD and HPLC); set-up: key to Crystal Form (XRPD vs unstressed time 0 sample): NC: No Change
Text: Physical and chemical stability of Form B is an important attribute not only with respect to ensuring dissolution and solubility, but also for API and dosage form drug development and manufacturing operations (drying, storage, shipping transfers, etc.). Not all crystalline forms have the needed stability to enable drug development. A crystal form that is stable with respect to both temperature and humidity is desired. In order to assess the stability of the crystal form of selpercatinib an accelerated stability study iss carried out. Samples of Form B are weighed into 20 mL scintillation vials and placed (open dish) into bell jars with saturated salt solutions in ovens at the specified temperatures and for the specified times in Table 4. The Form B is analyzed before and after the accelerated stability study and is collected on a Bruker D8 Advance XRPD, equipped with a CuKα source (wavelength = 1.54056 Å) and a Linxeye detector, and operating at 40 kV and 40 mA, with a 0.2 mm divergence slit. Each sample is scanned from 4° to 30° 2θ in 0.02° steps at a rate of 0.2 seconds per step. Assay and impurities relative to the starting material are assessed using an Agilent 1260 HPLC System with Diode Array Detector. Samples are prepared at appropriate concentrations in 50/50 0.1%TFA in water/0.1%TFA in ACN and evaluated using the following HPLC conditions: Column Zorbax Bonus-RP, 75 × 4.6 mm i.d., 3.5 micron, mobile phase A is 0.1% TFA in water, mobile phase B is 0.1% TFA in ACN, gradient is 95% A at time 0, 23% A at time 9.5-12.1 minutes, 5% A at time 13-16 minutes, 95% A at time 16.1-20 minutes with a flow rate of 1.5 mL/min, a column temperature of 30° C., UV detection wavelength of 210 nm, and injection volume of 3 µL.

[2] = equilibrium solubility in aqueous media and simulated fluids
Description: Solubility studies were completed on the crystal form of selpercatinib described herein. Aqueous media covering the physiological pH range and three simulated fluids were used in these studies. A sufficient quantity of solid compound to saturate the volume of solvent is weighed into a vessel with approximately 1 mL of the specified solvent. […] After equilibration, samples are transferred to centrifuge filters (Durapore PVDF, 0.22 µm pore size) and centrifuged for 3 min at 10,000 rpm, while maintaining 37° C. A 100 µL aliquot is then withdrawn from each sample and diluted with 900 µL of 50:50 acetonitrile:water. The pH of the filtrate is recorded using calibrated scientific pH equipment. The solution concentration of the compound is determined by HPLC using an Agilent Zorbax Bonus-RP 4.6 × 75 mm, 3.5 µm column under the following conditions:; temperature is 30° C.; injection volume is 4 µL; ultraviolet detection at 238 nm; flow rate is 1.5 mL/min; autosampler temperature is 25° C.; mobile phase A is 0.1% trifluoroacetic acid in water; and mobile phase B is 0.1% trifluoroacetic acid in acetonitrile. The HPLC gradient is as follows: 0 min -95% A, 5% B; 9.5 min - 23% A, 77% B; 12.1 min - 23% A, 77% B; 13 min - 5% A, 95% B; 16 min - 5% A, 95% B; 16.1 min - 95% A, 5% B; 20 min - 95% A, 5% B. The table below (Table 3) details the equilibrium solubility data and equilibrium pH, reported as a mean of duplicate sample preparations. The solid form of the residual solid from the centrifuge sample is verified by XRPD, as noted in Table 5.

[3] = solubility in organic solvents
[4] = hygroscopicity comparison of polymorphs; details: anhydrous polymorphs compared

## COc1ccc(CN2C3CC2CN(c2ccc(-c4cc(OCC(C)(C)O)cn5ncc(C#N)c45)cn2)C3)cn1 [Form B, 6-(2-hydroxy-2-methylpropoxy)-4-(6-(6-((6-methoxypyridin-3-yl)methyl)-3,6-diazabicyclo[3.1.1]heptan-3-yl)pyridin-3-yl)pyrazolo[1,5-a]pyridine-3-carbonitrile]
[1]; 7 days, 40 °C, 11% RH
  Assay (%) in comparison to the unstressed (time 0) sample: 99.2%
  Crystal Form (XRPD vs unstressed time 0 sample): NC
  Impurities (%): 0.10%
[1]; 7 days, 40 °C, 75% RH
  Assay (%) in comparison to the unstressed (time 0) sample: 99.4%
  Crystal Form (XRPD vs unstressed time 0 sample): NC
  Impurities (%): 0.11%
[1]; 7 days, 50 °C, 30% RH
  Assay (%) in comparison to the unstressed (time 0) sample: 99.4%
  Crystal Form (XRPD vs unstressed time 0 sample): NC
  Impurities (%): 0.09%
[1]; 7 days, 50 °C, 50% RH
  Assay (%) in comparison to the unstressed (time 0) sample: 99.2%
  Crystal Form (XRPD vs unstressed time 0 sample): NC
  Impurities (%): 0.10%
[1]; 7 days, 70 °C, 11% RH
  Assay (%) in comparison to the unstressed (time 0) sample: 100.7%
  Crystal Form (XRPD vs unstressed time 0 sample): NC
  Impurities (%): 0.09%
[1]; 7 days, 70 °C, 75% RH
  Assay (%) in comparison to the unstressed (time 0) sample: 100.3%
  Crystal Form (XRPD vs unstressed time 0 sample): NC
  Impurities (%): 0.10%
[1]; 14 days, 40 °C, 11% RH
  Assay (%) in comparison to the unstressed (time 0) sample: 99.9%
  Crystal Form (XRPD vs unstressed time 0 sample): NC
  Impurities (%): 0.09%
[1]; 14 days, 40 °C, 75% RH
  Assay (%) in comparison to the unstressed (time 0) sample: 99.9%
  Crystal Form (XRPD vs unstressed time 0 sample): NC
  Impurities (%): 0.10%
[1]; 14 days, 50 °C, 30% RH
  Assay (%) in comparison to the unstressed (time 0) sample: 100.5%
  Crystal Form (XRPD vs unstressed time 0 sample): NC
  Impurities (%): 0.09%
[1]; 14 days, 50 °C, 50% RH
  Assay (%) in comparison to the unstressed (time 0) sample: 100.4%
  Crystal Form (XRPD vs unstressed time 0 sample): NC
  Impurities (%): 0.11%
[1]; 14 days, 70 °C, 11% RH
  Assay (%) in comparison to the unstressed (time 0) sample: 99.3%
  Crystal Form (XRPD vs unstressed time 0 sample): NC
  Impurities (%): 0.10%
[1]; 14 days, 70 °C, 75% RH
  Assay (%) in comparison to the unstressed (time 0) sample: 100.9%
  Crystal Form (XRPD vs unstressed time 0 sample): NC
  Impurities (%): 0.11%
[1]; accelerated stability study, conditions of Table 4
  stability under the testing conditions: chemically and physically stable
[1]; time point 0 days, unstressed sample
  Impurities (%): 0.09%
[2]; 0.01N HCl, 37° C., 24-hour equilibration
  Equilibrium pH: 3.634
[2]; 0.01 N NaOH, 37° C., 24-hour equilibration
  Equilibrium pH: 9.985
[2]; 0.1N HCl, 21.5° C. (ambient)
  Equilibrium pH: 1.297
[2]; FaSSIF, 37° C., 24-hour equilibration
  Equilibrium pH: 6.445
[2]; FeSSIF, 37° C., 24-hour equilibration
  Equilibrium pH: 4.928
[2]; SGF (simulated gastric fluid), 37° C., 24-hour equilibration
  Equilibrium pH: 2.644
[2]; Water, 37° C., 24-hour equilibration
  Equilibrium pH: 7.146
[2]; aqueous buffer, thermodynamic from solid, 0.01 N NaOH, 37° C., 24-hour equilibration
  solubility at 24 h: 1.1 µg/mL (≈ 2.09 µM)
[2]; aqueous media, 37 °C, thermodynamic from solid, indicated by the aqueous solubility results, read-out: intrinsic solubility
  solubility: ~1 µg/mL (≈ 1.9 µM)
[2]; citrate/phosphate buffer pH 4.0, aqueous buffer, thermodynamic from solid, pH 4.0 Citrate/Phosphate, 37° C., 24-hour equilibration
  solubility at 24 h: 712 µg/mL (≈ 1350 µM)
[2]; pH 1.297, simulated gastric fluid, thermodynamic from solid, 0.1N HCl, measured at 21.5° C. (ambient), 24-hour equilibration
  solubility at 24 h: ≥ 10000 µg/mL
[2]; pH 2.644, thermodynamic from solid, SGF (simulated gastric fluid), 37° C., 24-hour equilibration, retained solids non-crystalline by XRPD
  solubility at 24 h: 1440 µg/mL (≈ 2740 µM)
[2]; pH 3.634, simulated gastric fluid, thermodynamic from solid, 0.01N HCl, 37° C., 24-hour equilibration
  solubility at 24 h: 4770 µg/mL (≈ 9080 µM)
[2]; pH 4.0 Citrate/Phosphate, 37° C., 24-hour equilibration
  Equilibrium pH: 4.134
[2]; pH 4.5 Acetate (USP), 37° C., 24-hour equilibration
  Equilibrium pH: 4.496
[2]; pH 4.5 acetate buffer (USP), aqueous buffer, thermodynamic from solid, pH 4.5 Acetate (USP), 37° C., 24-hour equilibration
  solubility at 24 h: 169 µg/mL (≈ 322 µM)
[2]; pH 6.0 Phosphate (USP), 37° C., 24-hour equilibration
  Equilibrium pH: 6.027
[2]; pH 6.0 phosphate buffer (USP), aqueous buffer, thermodynamic from solid, pH 6.0 Phosphate (USP), 37° C., 24-hour equilibration
  solubility at 24 h: 8.6 µg/mL (≈ 16.4 µM)
[2]; pH 7.146, thermodynamic from solid, Water, 37° C., 24-hour equilibration
  solubility at 24 h: 3.6 µg/mL (≈ 6.85 µM)
[2]; pH 7.5 Phosphate (USP), 37° C., 24-hour equilibration
  Equilibrium pH: 7.526
[2]; pH 7.5 phosphate buffer (USP), aqueous buffer, thermodynamic from solid, pH 7.5 Phosphate (USP), 37° C., 24-hour equilibration
  solubility at 24 h: 2.2 µg/mL (≈ 4.19 µM)
[2]; thermodynamic from solid, FaSSIF (fasted-state simulated intestinal fluid, pH 6.5), 37° C., 24-hour equilibration
  solubility at 24 h: 9.6 µg/mL (≈ 18.3 µM)
[2]; thermodynamic from solid, FeSSIF (fed-state simulated intestinal fluid, pH 5.0), 37° C., 24-hour equilibration
  solubility at 24 h: 228 µg/mL (≈ 433 µM)
[3]
  solubility in anisole: almost no solubility

## COc1ccc(CN2C3CC2CN(c2ccc(-c4cc(OCC(C)(C)O)cn5ncc(C#N)c45)cn2)C3)cn1 [Form A, 6-(2-hydroxy-2-methylpropoxy)-4-(6-(6-((6-methoxypyridin-3-yl)methyl)-3,6-diazabicyclo[3.1.1]heptan-3-yl)pyridin-3-yl)pyrazolo[1,5-a]pyridine-3-carbonitrile]
[3]; 25° C.
  solubility in many organic solvents, including MEK, acetone, and many alcohol based solvents: poor
[3]; dichloromethane, dimethylsulfoxide and THF, organic solvent or mixture, 25° C., called moderate solubility, read-out: solubility in dichloromethane (DCM), dimethylsulfoxide (DMSO) and THF
  solubility: 3000 to 30000 µg/mL (≈ 5710 to 57100 µM)
[4]
  hygroscopicity: slightly more hygroscopic than Form B
